Test results reported in patent US20220289691A1, “5-AMINO-SUBSTITUTED PYRAZOLES AND TRIAZOLES AS PEST CONTROL AGENTS” (Bayer Aktiengesellschaft, priority 2019, published 2022).

Legend:
Type in all cases: in vivo
Ctenocephalides felis = Ctenocephalides felis oral test; conditions: 48 h, 100 ppm in citrated cattle blood, adult cat fleas, after 2 days, read-out: efficacy (kill)
Description: Ctenocephalides felis—Oral Test
Solvent: Dimethyl Sulfoxide
To produce a suitable active compound formulation, 10 mg of active compound are mixed with 0.5 ml of dimethyl sulfoxide. Dilution with citrated cattle blood gives the desired concentration.
About 20 unfed adult cat fleas (Ctenocephalides felis) are placed into a chamber which is closed at the top and bottom with gauze. A metal cylinder whose bottom end is closed with parafilm is placed onto the chamber. The cylinder contains the blood/active compound formulation, which can be imbibed by the fleas through the parafilm membrane.
After 2 days, the kill in % is determined. 100% means that all of the fleas have been killed; 0% means that none of the fleas have been killed.

Spodoptera frugiperda = Spodoptera frugiperda spray test; conditions: foliar, 168 h, maize leaf discs, after 7 days, read-out: efficacy (caterpillars killed)
Description: Spodoptera frugiperda—Spray Test Solvent: 78.0 parts by weight of acetone • • 1.5 parts by weight of dimethylformamide Emulsifier: alkylaryl polyglycol ether
(§1) To produce a suitable active compound formulation, 1 part by weight of active compound is dissolved using the stated parts by weight of solvent and made up with water containing an emulsifier concentration of 1000 ppm until the desired concentration is attained. To produce further test concentrations, the formulation is diluted with emulsifier-containing water.
Leaf discs of maize (Zea mays) are sprayed with an active compound formulation of the desired concentration and, after drying, populated with caterpillars of the fall armyworm (Spodoptera frugiperda).
After 7 days, the efficacy in % is determined. 100% means that all the caterpillars have been killed; 0% means that no caterpillar has been killed.

Phaedon cochleariae = Phaedon cochleariae spray test; conditions: foliar, 168 h, Chinese cabbage leaf discs, after 7 days, read-out: efficacy (beetle larvae killed)
Description: Phaedon cochleariae—Spray Test Solvent: 78.0 parts by weight of acetone • • 1.5 parts by weight of dimethylformamide Emulsifier: alkylaryl polyglycol ether
as §1
Discs of Chinese cabbage leaves (Brassica pekinensis) are sprayed with an active compound formulation of the desired concentration and, after drying, populated with larvae of the mustard beetle (Phaedon cochleariae).
After 7 days, the efficacy in % is determined. 100% means that all the beetle larvae have been killed; 0% means that no beetle larvae have been killed.

Diabrotica balteata = Diabrotica balteata spray test; conditions: 168 h, beetle larvae on wheat, after 7 days, read-out: efficacy (wheat plant growth); for pest or weed control at 100 g/ha: 100 g/ha (=32 μg/cavity); for pest or weed control at 500 g/ha: 500 g/ha (=160 μg/cavity); for pest or weed control at 125 g/ha: 125 g/ha (=40 μg/cavity)
Description: Diabrotica balteata—Spray Test Solvent: 78 parts by weight of acetone • • 1.5 parts by weight of dimethylformamide Emulsifier: alkylaryl polyglycol ether
as §1
Pre-swollen wheat grains (Triticum aestivum) are incubated in a multiwell plate filled with agar and a little water for one day (5 seed grains per cavity). The germinated wheat grains are sprayed with an active compound formulation of the desired concentration. Subsequently, each cavity is infected with 10-20 beetle larvae of Diabrotica balteata.
After 7 days, the efficacy in % is determined. 100% means that all wheat plants have grown as in the untreated, uninfected control; 0% means that no wheat plant has grown.

CC(=O)Nc1nc(-c2ccc(C=NNC(=S)Nc3ccccc3C)cc2)nn1-c1ccc(OC(F)(F)F)cc1 [Compound I-010]
pest or weed control at 100 ppm (Ctenocephalides felis): 100%
pest or weed control at 100 g/ha (Spodoptera frugiperda): 100%
pest or weed control at 100 g/ha (Phaedon cochleariae): 100%

CC(=O)Nc1nc(-c2ccc(C(C)=NNC(=S)Nc3c(C)cccc3C)cc2)nn1-c1ccc(OC(F)(F)F)cc1 [Compound I-015]
pest or weed control at 100 ppm (Ctenocephalides felis): 100%
pest or weed control at 100 g/ha (Spodoptera frugiperda): 100%
pest or weed control at 100 g/ha (Phaedon cochleariae): 83%

CCC(=O)Nc1nc(-c2ccc(C(C)=NNC(=S)Nc3ccccc3C(C)C)cc2)nn1-c1ccc(OC(F)(F)F)cc1 [Compound I-016]
pest or weed control at 100 ppm (Ctenocephalides felis): 95%
pest or weed control at 100 g/ha (Spodoptera frugiperda): 100%
pest or weed control at 100 g/ha (Phaedon cochleariae): 100%

CO[C@@H]1[C@@H](OC)[C@H](C)O[C@@H](OC(=O)Nc2ccc(-c3nc(NC(=O)C4CC4)n(-c4ccc(OC(F)(F)C(F)(F)F)cc4)n3)cc2)[C@@H]1OC [Compound I-004]
pest or weed control at 500 g/ha (Spodoptera frugiperda; 500 g/ha): 83%
pest or weed control at 100 g/ha (Phaedon cochleariae): 100%
pest or weed control at 500 g/ha (Phaedon cochleariae; 500 g/ha): 100%

CCC(=O)Nc1nc(-c2ccc(C=NNC(=S)Nc3ccccc3C(C)C)cc2)nn1-c1ccc(OC(F)(F)F)cc1 [Compound I-012]
pest or weed control at 100 g/ha (Spodoptera frugiperda): 100%
pest or weed control at 100 g/ha (Phaedon cochleariae): 100%

CNc1nc(-c2ccc(C=NN=C3SCC(=O)N3c3ccccc3C(C)C)cc2Cl)nn1-c1ccc(OC(F)(F)F)cc1 [Compound I-112]
pest or weed control at 100 g/ha (Diabrotica balteata): 100%
pest or weed control at 100 g/ha (Spodoptera frugiperda): 100%

CC(C)c1ccccc1NC(=S)NN=Cc1ccc(-c2nc(/N=C/N(C)C)n(-c3ccc(OC(F)(F)F)cc3)n2)cc1 [Compound I-061]
pest or weed control at 100 g/ha (Diabrotica balteata): 80%
pest or weed control at 500 g/ha (Diabrotica balteata): 80%
pest or weed control at 100 g/ha (Spodoptera frugiperda): 100%

CC(C)c1ccccc1N1C(=O)CSC1=NN=Cc1ccc(-c2nc(NC3CC3)n(-c3ccc(OC(F)(F)F)cc3)n2)cc1 [Compound I-058]
pest or weed control at 100 g/ha (Diabrotica balteata): 100%
pest or weed control at 500 g/ha (Diabrotica balteata): 100%
pest or weed control at 100 g/ha (Spodoptera frugiperda): 100%

CNC(=O)Nc1nc(-c2ccc(NC(=O)N=C3SCC(=O)N3c3ccccc3C(C)C)cc2)nn1-c1ccc(OC(F)(F)F)cc1 [Compound I-030]
pest or weed control at 500 g/ha (Diabrotica balteata): 100%
pest or weed control at 100 g/ha (Spodoptera frugiperda): 100%

CNc1nc(-c2c(F)cc(C=NN=C3SCC(=O)N3c3ccccc3C(C)C)cc2F)nn1-c1ccc(OC(F)(F)F)cc1 [Compound I-122]
pest or weed control at 100 g/ha (Diabrotica balteata): 100%
pest or weed control at 100 g/ha (Spodoptera frugiperda): 100%

CC(C)c1ccccc1N1C(=O)CSC1=NN=Cc1ccc(-c2nc(NC3CCOCC3)n(-c3ccc(OC(F)(F)F)cc3)n2)cc1 [Compound I-087]
pest or weed control at 100 g/ha (Diabrotica balteata): 100%
pest or weed control at 100 g/ha (Spodoptera frugiperda): 100%

CNc1nc(-c2ccc(C=NNC(=S)Nc3ccccc3C(C)C)cc2C)nn1-c1ccc(OC(F)(F)F)cc1 [Compound I-119]
pest or weed control at 100 g/ha (Diabrotica balteata): 100%
pest or weed control at 100 g/ha (Spodoptera frugiperda): 100%

CCOCCNc1nc(-c2ccc(NC(=O)N=C3SCC(=O)N3c3ccccc3C(C)C)cc2)nn1-c1ccc(OC(F)(F)F)cc1 [Compound I-044]
pest or weed control at 100 g/ha (Diabrotica balteata): 80%
pest or weed control at 500 g/ha (Diabrotica balteata): 80%
pest or weed control at 100 g/ha (Spodoptera frugiperda): 100%

CNc1nc(-c2ccc(C=NN=C3SCCCN3c3ccccc3C(C)C)cc2)nn1-c1ccc(OC(F)(F)C(F)(F)F)cc1 [Compound I-126, 3-[4-({[3-(2-isopropylphenyl)-1,3-thiazinan-2-yliden]hydrazono}methyl)phenyl]-N-methyl-1-[4-(pentafluoroethoxy)phenyl]-1H-1,2,4-triazol-5-amine]
pest or weed control at 100 g/ha (Diabrotica balteata): 100%
pest or weed control at 100 g/ha (Spodoptera frugiperda): 100%

CNc1nc(-c2ccc(C=NN=C3SCC(=O)N3c3ccccc3C(C)C)nc2)nn1-c1ccc(OC(F)(F)F)cc1 [Compound I-118]
pest or weed control at 100 g/ha (Diabrotica balteata): 100%
pest or weed control at 100 g/ha (Spodoptera frugiperda): 100%

CC(=O)Nc1nc(-c2ccc(C(C)=NNC(=S)Nc3ccccc3C)cc2)nn1-c1ccc(OC(F)(F)F)cc1 [Compound I-014]
pest or weed control at 100 ppm (Ctenocephalides felis): 80%
pest or weed control at 100 g/ha (Spodoptera frugiperda): 100%
pest or weed control at 100 g/ha (Phaedon cochleariae): 100%

CCNc1nc(-c2ccc(NC(=O)N=C3SCC(=O)N3c3ccccc3C(C)C)cc2)nn1-c1ccc(OC(F)(F)F)cc1 [Compound I-042]
pest or weed control at 100 g/ha (Diabrotica balteata): 100%
pest or weed control at 100 g/ha (Spodoptera frugiperda): 100%

CNc1nc(-c2ccc(C=NNC(=S)Nc3cc(OC)ccc3C(C)C)cc2)nn1-c1ccc(OC(F)(F)F)cc1 [Compound I-084]
pest or weed control at 100 g/ha (Diabrotica balteata): 100%
pest or weed control at 100 g/ha (Spodoptera frugiperda): 100%

CC(C)c1ccccc1N1C(=O)CSC1=NC(=O)Nc1ccc(-c2nc(N)n(-c3ccc(OC(F)(F)C(F)(F)F)cc3)n2)cc1 [Compound I-055]
pest or weed control at 100 g/ha (Diabrotica balteata): 80%
pest or weed control at 500 g/ha (Diabrotica balteata): 100%
pest or weed control at 100 g/ha (Spodoptera frugiperda): 100%

CC(C)Nc1nc(-c2ccc(NC(=O)N=C3SCC(=O)N3c3ccccc3C(C)C)cc2)nn1-c1ccc(OC(F)(F)F)cc1 [Compound I-043]
pest or weed control at 100 g/ha (Diabrotica balteata): 100%
pest or weed control at 500 g/ha (Diabrotica balteata): 100%
pest or weed control at 100 g/ha (Spodoptera frugiperda): 100%

CNc1nc(-c2c(F)cc(C=NNC(=S)Nc3ccccc3C(C)C)cc2F)nn1-c1ccc(OC(F)(F)F)cc1 [Compound I-120]
pest or weed control at 100 g/ha (Diabrotica balteata): 100%
pest or weed control at 100 g/ha (Spodoptera frugiperda): 100%

CC(C)c1ccccc1NC(=S)NN=Cc1ccc(-c2nc(NC(=O)C3CC3)n(-c3ccc(OC(F)(F)F)cc3)n2)cc1 [Compound I-013]
pest or weed control at 100 ppm (Ctenocephalides felis): 100%
pest or weed control at 100 g/ha (Spodoptera frugiperda): 100%
pest or weed control at 100 g/ha (Phaedon cochleariae): 100%

CNc1nc(-c2ccc(C=NNC(=S)Nc3ccccc3C(C)C)cc2C#N)nn1-c1ccc(OC(F)(F)F)cc1 [Compound I-123]
pest or weed control at 100 g/ha (Diabrotica balteata): 100%
pest or weed control at 100 g/ha (Spodoptera frugiperda): 100%

CNc1nc(-c2ccc(C=NN=C3SCCC(=O)N3c3ccccc3C(C)C)cc2)nn1-c1ccc(OC(F)(F)F)cc1 [Compound I-113]
pest or weed control at 100 g/ha (Diabrotica balteata): 100%
pest or weed control at 100 g/ha (Spodoptera frugiperda): 100%

CC(=O)Nc1cc(-c2ccc(C=NNC(=S)Nc3ccccc3C(C)C)cc2)nn1-c1ccc(OC(F)(F)F)cc1 [Compound I-040]
pest or weed control at 100 g/ha (Diabrotica balteata): 80%
pest or weed control at 500 g/ha (Diabrotica balteata): 100%
pest or weed control at 100 g/ha (Spodoptera frugiperda): 100%

CC(C)c1ccccc1N1C(=O)CSC1=NN=Cc1ccc(-c2nc(N)n(-c3ccc(OC(F)(F)C(F)(F)F)cc3)n2)cc1 [Compound I-065]
pest or weed control at 100 g/ha (Diabrotica balteata): 100%
pest or weed control at 500 g/ha (Diabrotica balteata): 100%
pest or weed control at 100 g/ha (Spodoptera frugiperda): 100%

CC(C)c1ccccc1NC(=S)NN=Cc1ccc(-c2nc(NC3COC3)n(-c3ccc(OC(F)(F)F)cc3)n2)cc1 [Compound I-049]
pest or weed control at 100 g/ha (Diabrotica balteata): 100%
pest or weed control at 500 g/ha (Diabrotica balteata): 100%
pest or weed control at 100 g/ha (Spodoptera frugiperda): 100%

CNc1nc(-c2ccc(C=NN=C3SCC(=O)CN3c3ccccc3C(C)C)cc2)nn1-c1ccc(OC(F)(F)F)cc1 [Compound I-103]
pest or weed control at 100 g/ha (Diabrotica balteata): 100%
pest or weed control at 100 g/ha (Spodoptera frugiperda): 100%

CC(C)c1ccccc1N1C(=O)CSC1=NC(=O)Nc1ccc(-c2nc(NC3CC3)n(-c3ccc(OC(F)(F)F)cc3)n2)cc1 [Compound I-029]
pest or weed control at 125 g/ha (Diabrotica balteata): 100%
pest or weed control at 500 g/ha (Diabrotica balteata): 100%
pest or weed control at 100 g/ha (Spodoptera frugiperda): 100%

CNc1nc(-c2ccc(C=NN3CCCSC3=Nc3ccccc3C(C)C)cc2)nn1-c1ccc(OC(F)(F)F)cc1 [Compound I-102]
pest or weed control at 100 g/ha (Diabrotica balteata): 100%
pest or weed control at 100 g/ha (Spodoptera frugiperda): 100%

COCCCNc1nc(-c2ccc(C=NNC(=S)Nc3ccccc3C(C)C)cc2)nn1-c1ccc(OC(F)(F)F)cc1 [Compound I-073]
pest or weed control at 100 g/ha (Diabrotica balteata): 100%
pest or weed control at 100 g/ha (Spodoptera frugiperda): 100%

CC(C)c1ccccc1NC(=S)NN=Cc1ccc(-c2nc(N3CCOCC3)n(-c3ccc(OC(F)(F)F)cc3)n2)cc1 [Compound I-019]
pest or weed control at 125 g/ha (Diabrotica balteata): 100%
pest or weed control at 500 g/ha (Diabrotica balteata): 100%
pest or weed control at 100 g/ha (Spodoptera frugiperda): 100%
